Measured values: US10054581B1, “Inhibitors of notch signaling pathway and use thereof in treatment of cancers” (Ecole Polytechnique Federale de Lausanne (EPFL), priority 2011, dated 2018)
Entries after “also recorded” stand apart in the source; their conditions may differ.

Key:
[1] = test system: Notch signalling via DL4:N1 ligand-receptor pair (Notch1); assay: DL4:N1 coculture assay, Notch driven luciferase reporter; type: cell-based, mouse; conditions: for DL4:N1 (Notch1) driven pathway activation: 10 μM, 24 hours
Text: Mouse DL4-IRES dsRED cDNA was cloned into a pENTR1 vector (Invitrogen®) and finally shuttled into a destination lentivirus vector using Gateway cloning strategy (Invitrogen). A Phosphoglycerate kinase (PGK) promoter drove the expression of DL4 protein. DL4-lentiviral particles were produced in 293T cells by cotransfection of DL4-lentivirus vector, Gag/pol expression plasmid and plasmid encoding for viral envelope proteins. To overexpress Notch1 protein, mouse full length Notch1 cDNA was a cloned in a pCDNA3.1-IRES-puromycin vector. Notch1 cDNA was cloned upstream of IRES-puromycin between HindIII and XbaI restriction sites. A CMV promoter controlled the expression of Notch1 protein.
(§1) To measure the Notch signalling activation, CSL/RBP-jk consensus DNA binding sequences were cloned in a head to tail conformation in the pGL4 luciferase vector (Promega), thus named 12×CSL/RBP-jjk luciferase vector. In order to determine the Notch pathway activation in chemical compound screening assay, 12×CSL/RBP-jk consensus DNA binding sequences were cloned into pGL4.26.luciferase vector (Promega). As an internal control for transfection efficiency, SV40 Renilla vector was used (Promega).
In order to generate DL4 and N1 stable cell lines, HeLa cell were bought from ATCC (catalog # CCL-2). To generate DL4 stable lines, cells were transduced with DL4-lentiviral particles. DL4 stable clones were selected using puromycin. High DL4 expressing clones were sorted using antibodies against DL4 with Fluorescence activated cell sorting (FACS). To generate N1 stable line, cell were transfected with a pCDNA3.1+(Invitrogen) plasmid containing mouse full length Notch1 under the control of CMV promoter. To select for Notch1 expressing clones, an IRES puromycin cassette was cloned downstream of Notch1 cDNA. HeLa cells expressing high levels of Notch1 were enriched by FACS using anti-Notch1 antibodies. DL4- and N1-HeLa cells were cultured in DMEM (GIBCO, Invitrogen), 10% FCS and 10 ug/ml of puromycin (Sigma).
For chemical library screen, the coculture assay was performed as follows. N1-HeLa cells were cotransfected in 10 cm tissue culture dishes with 16 μg of pGL4.26. 12×CSL.luciferase vector/plate, 4 μg of Notch1 expression plasmid/plate, and 200 ng of SV40 Renilla vector/plate. DL4- and N1-HeLa cells were detached from the plate by using 0.5 mM EDTA (1×PBS). The both cell populations were counted and mixed in 1:1 ratio (5,000:5,000 cells/well in a 384 well plate) and dispensed into 384 well plates (white, clear bottom, Corning) using multidrop Combi plate dispenser. The assay plates were pre-dispensed (using automated Biomek 3000 liquid handler) with chemical compound libraries (Microsource NIMDS, Maybridge Hitfinder and Prestwick) to give a final concentration of 10 μM. The final assay volume was 22 μls. Twenty-four hours later, growth media was aspirated and cells were lysed with 1× Passive lysis buffer for 10 minutes at room temperature. Luciferase activity was measured using Luciferase Assay Reagent II and Renilla values were determined by using Stop and Glow reagent (Dual luciferase assay system, Cat #E1980, Promega). Luciferase and renilla readouts were taken using Tecan® F500 (Tecan) multiplate reader. All the liquid handling steps (aspiration of the medium, dispensing of Passive lysis buffer, Luciferase Assay Reagent II and Stop and Glow reagents) were performed using ELF406 liquid handler.
In order to identify novel modulators of the Notch pathway, Applicants have established a coculture assay in which DL4 ligand expressing HeLa cells were cultured with N1 HeLa cells, thereby activating the Notch pathway. The use of a DL4 and N1 HeLa cell coculture system mimics physiological conditions of cell-cell communication between ligand and receptor expressing cells. The in vitro generation of a controlled receptor-ligand assay system allowed Applicants to modify and monitor the Notch signal intensity by γ-secretase inhibitors. […]

[2] = test system: Notch1-intracellular domain (NICD) mediated Notch signalling; assay: NICD transfected HeLa cells, 12×CSL luciferase reporter; type: cell-based; conditions: HeLa cells transfected with NICD; I3 2-40 μM, DAPT 5-40 μM
Text: as §1
NICD-GFP overexpression studies were performed using pEGFP-C1-NICD expression plasmid. The FLAG-CMV2 plasmid expressing MAML1-FLAG was a kind gift from Dr. Lizi Wu, Harvard Medical School, Boston.
The transfected cells were treated with an increasing concentration of I3 and DAPT.

[3] = test system: Hes1 in DND41-Parental cells; assay: Hes1 Western blot in DND41-Parental cells; type: cell-based, human; conditions: 24 hours
Protocol: Cells were lysed in RIPA buffer (50 mM Tris.Cl, pH 7.5, 150 mM NaCl, 1% nonidet P-40, 0.5% sodium deoxycholate and 0.1% SDS) for 30 minutes at 4° C. Lysed cells were centrifuged to remove the debris at 14000 rpm at 4° C. Supernatant was transferred to a new eppendorf tube. The protein concentration was determined by Bradford assay using spectrophotometer (Ultrospec 3000 pro). 40 μg of protein were denatured in 1×SDS gel loading buffer (100 mM Tris.Cl, pH 6.8, 200 mM DTT, 4% SDS, 0.2% bromophenol, 20% glycerol) by heating at 99° C. for 5 minutes. Denatured protein samples were stored on ice until loading on to the acrylamide gel. The samples were run on 8% or 10% acrylamide gel in Tris-glycine electrophoresis buffer (25 mM Tris, 250 mM glycine, 0.1% SDS). […]
For immunoblotting, membranes were blocked with 5% milk and incubated overnight with primary antibodies at 4° C. […] Signal was detected with Super Signal West chemiluminescent substrate (Thermo Scientific, catalog number 34077).
6-(4-Tert-Butylphenoxy)Pyridin-3-Amine (I3) can block NICD mediated activation of the Notch pathway (FIGS. 1A-D). […] In addition, these two cell lines were also monitored over several days for anti-proliferative effects of 6-(4-Tert-Butylphenoxy)Pyridin-3-Amine (I3) and DAPT.

downregulation of Notch signalling activation ([1]; 10 μM DAPT vs DMSO, 384 well plate) [fold] | Compound | DL4:N1 (Notch1) driven pathway activation [1] | NICD mediated Notch signalling activation [2] | Hes1 protein [3]
10 | C[C@H](NC(=O)Cc1cc(F)cc(F)c1)C(=O)N[C@H](C(=O)OC(C)(C)C)c1ccccc1 [DAPT, N—[N-(3,5-difluorophenacetyl-Lalanyl)]-(S)-phenylglycine t-butyl ester, reference compound] | block Notch1 and Notch2 induced pathway activation | had no effect on the signalling activation; also recorded: had no effect on Notch signalling activation mediated by NICD | led to a downregulation of Hes1; also recorded: caused a downregulation of Hes1 in DND41-Parental cells
 | CC(C)(C)c1ccc(Oc2ccc(N)cn2)cc1 [I3, 6-(4-Tert-Butylphenoxy)Pyridin-3-Amine] | caused an inhibition of Notch signalling via both DL4:N1 and DL4:N2 ligand-receptor pairs; also recorded: block Notch1 and Notch2 induced pathway activation | could block pathway activation in a dose-dependent manner; also recorded: could also block pathway activation by Notch1-intracellular domain (NICD) and Notch2-intracellular domain (N2-ICD); also recorded: led to an attenuation of the signalling; also recorded: inhibits pathway activation via intracellular domains of Notch1 (NICD) and Notch2 (N2-ICD); also recorded: found to block NICD mediated pathway activation | led to a downregulation of Hes1; also recorded: caused a downregulation of Hes1 in DND41-Parental cells
